# Results from ChEMBL document CHEMBL1949518, “Synthesis and biological evaluation of some new 2-pyrazolines bearing benzene sulfonamide moiety as potential anti-inflammatory and anti-cancer agents” (Eur J Med Chem, 2011).
# What was measured:
# Format in all cases: functional
# UO-31 = test: Antiproliferative activity against human UO31 cells assessed as cell growth at 10^-5 M after 48 hrs by SRB assay relative to control; details: UO-31, 48 h, read-out: Activity
# NCI-H522 = test: Anticancer activity against human NCI-H522 cells after 48 hrs by SRB assay; details: NCI-H522, 48 h
# HCT-15 = test: Anticancer activity against human HCT15 cells after 48 hrs by SRB assay; details: HCT-15, 48 h
# SR = test: Anticancer activity against human SR cells after 48 hrs by SRB assay
# BT-549 = test: Anticancer activity against human BT549 cells after 48 hrs by SRB assay; details: BT-549, 48 h
# UACC-62 = test: Anticancer activity against human UACC62 cells after 48 hrs by SRB assay; details: UACC-62, 48 h
# HT-29 = test: Anticancer activity against human HT-29 cells after 48 hrs by SRB assay; details: HT-29, 48 h
# Malme-3M = test: Anticancer activity against human MALME-3M cells after 48 hrs by SRB assay
# RXF 393 = test: Anticancer activity against human RXF393 cells after 48 hrs by SRB assay; details: RXF 393, 48 h
# PC-3 = test: Anticancer activity against human PC3 cells after 48 hrs by SRB assay; details: PC-3, 48 h
# MDA-MB-468 = test: Anticancer activity against human MDA-MB-468 cells after 48 hrs by SRB assay; details: MDA-MB-468, 48 h
# CAKI-1 = test: Anticancer activity against human Caki1 cells after 48 hrs by SRB assay; details: CAKI-1, 48 h
# A498 = test: Anticancer activity against human A498 cells after 48 hrs by SRB assay; details: A498, 48 h
# OVCAR-4 = test: Anticancer activity against human OVCAR4 cells after 48 hrs by SRB assay; details: OVCAR-4, 48 h
# SF-295 = test: Anticancer activity against human SF295 cells after 48 hrs by SRB assay; details: SF-295, 48 h
# T47D = test: Anticancer activity against human T47D cells after 48 hrs by SRB assay
# OVCAR-3 = test: Anticancer activity against human OVCAR3 cells after 48 hrs by SRB assay; details: OVCAR-3, 48 h
# [1] = Anticancer activity against human Hs 578T cells after 48 hrs by SRB assay
# HL-60(TB) = test: Anticancer activity against human HL-60(TB) cells after 48 hrs by SRB assay; details: HL-60, 48 h
# SF-268 = test: Anticancer activity against human SF268 cells after 48 hrs by SRB assay; details: SF-268, 48 h
# SF-539 = test: Anticancer activity against human SF539 cells after 48 hrs by SRB assay; details: SF-539, 48 h
# UACC-257 = test: Anticancer activity against human UACC257 cells after 48 hrs by SRB assay; details: UACC-257, 48 h
# MDA-MB-231 = test: Anticancer activity against human MDA-MB-231 cells after 48 hrs by SRB assay; details: MDA-MB-231, 48 h
# 786-0 = test: Anticancer activity against human 786-0 cells after 48 hrs by SRB assay; details: 786-0, 48 h
# M14 = test: Anticancer activity against human M14 cells after 48 hrs by SRB assay; details: M14, 48 h
# LOX IMVI = test: Anticancer activity against human LOXIMVI cells after 48 hrs by SRB assay
# HOP-92 = test: Anticancer activity against human HOP92 cells after 48 hrs by SRB assay; details: HOP-92, 48 h
# COLO 205 = test: Anticancer activity against human COLO205 cells after 48 hrs by SRB assay; details: COLO 205, 48 h
# ACHN = test: Anticancer activity against human ACHN cells after 48 hrs by SRB assay
# MCF7 = test: Anticancer activity against human MCF7 cells after 48 hrs by SRB assay; details: MCF7, 48 h
# U-251 = test: Anticancer activity against human U251 cells after 48 hrs by SRB assay; details: U-251, 48 h
# SK-MEL-28 = test: Anticancer activity against human SK-MEL-28 cells after 48 hrs by SRB assay; details: SK-MEL-28, 48 h
# A549 = test: Anticancer activity against human A549 cells after 48 hrs by SRB assay; details: A549, 48 h
# DU-145 = test: Anticancer activity against human DU145 cells after 48 hrs by SRB assay; details: DU-145, 48 h
# CCRF-CEM = test: Anticancer activity against human CCRF-CEM cells after 48 hrs by SRB assay
# [2] = read-out: LC50 (the source's name)
structure (smiles),measurement,setting,value
COc1ccc(C2CC(c3c(O)cc(C)c(Cl)c3C)=NN2c2ccc(S(N)(=O)=O)cc2)cc1 (configuration not stated),growth at 10 µM,UO-31,93.3%
Cc1cc(O)c(C2=NN(c3ccc(S(N)(=O)=O)cc3)C(c3ccc(Cl)cc3)C2)c(C)c1Cl (configuration not stated),GI50,NCI-H522,18.6 µM
same,TGI,NCI-H522,48.4 µM
same,GI50,HCT-15,14.2 µM
same,TGI,HCT-15,32 µM
same,GI50,SR,14.1 µM
same,TGI,SR,37.5 µM
same,GI50,BT-549,15.4 µM
same,TGI,BT-549,43.3 µM
same,CC50,BT-549; [2],100 µM
same,GI50,UACC-62,9.92 µM
same,TGI,UACC-62,25.8 µM
same,GI50,HT-29,10.9 µM
same,TGI,HT-29,25.8 µM
same,GI50,Malme-3M,14.8 µM
same,TGI,Malme-3M,32.7 µM
same,CC50,Malme-3M; [2],72.1 µM
same,GI50,RXF 393,24.5 µM
same,TGI,RXF 393,59.1 µM
same,CC50,RXF 393; [2],100 µM
same,GI50,PC-3,9.21 µM
same,TGI,PC-3,23.9 µM
same,CC50,PC-3; [2],58.9 µM
same,GI50,MDA-MB-468,17.1 µM
same,TGI,MDA-MB-468,33.8 µM
same,CC50,MDA-MB-468; [2],66.7 µM
same,GI50,CAKI-1,23.3 µM
same,TGI,CAKI-1,100 µM
same,CC50,CAKI-1; [2],100 µM
same,GI50,A498,26.7 µM
same,TGI,A498,43.9 µM
same,CC50,A498; [2],72.2 µM
same,GI50,OVCAR-4,13.3 µM
same,TGI,OVCAR-4,27.6 µM
same,GI50,SF-295,19.2 µM
same,TGI,SF-295,44.4 µM
same,GI50,T47D,5.72 µM
same,TGI,T47D,19.7 µM
same,CC50,T47D; [2],51.4 µM
same,GI50,OVCAR-3,17.8 µM
same,TGI,OVCAR-3,33.3 µM
same,GI50,[1],23 µM
same,TGI,[1],62.3 µM
same,CC50,[1]; [2],100 µM
same,GI50,HL-60(TB),20.3 µM
same,TGI,HL-60(TB),50 µM
same,GI50,SF-268,18.7 µM
same,TGI,SF-268,37.2 µM
same,CC50,SF-268; [2],73.9 µM
same,GI50,SF-539,15.7 µM
same,TGI,SF-539,29.3 µM
same,GI50,UACC-257,26.3 µM
same,TGI,UACC-257,63.1 µM
same,GI50,MDA-MB-231,11 µM
same,TGI,MDA-MB-231,27.2 µM
same,CC50,MDA-MB-231; [2],67.5 µM
same,GI50,786-0,16.8 µM
same,TGI,786-0,32.2 µM
same,CC50,786-0; [2],62 µM
same,GI50,M14,14 µM
same,TGI,M14,29.4 µM
same,CC50,M14; [2],61.5 µM
same,GI50,LOX IMVI,14.8 µM
same,TGI,LOX IMVI,32 µM
same,CC50,LOX IMVI; [2],69.2 µM
same,GI50,HOP-92,10.3 µM
same,TGI,HOP-92,23.6 µM
same,GI50,COLO 205,12.3 µM
same,TGI,COLO 205,25.4 µM
same,GI50,ACHN,14.9 µM
same,TGI,ACHN,30.6 µM
same,CC50,ACHN; [2],62.9 µM
same,GI50,MCF7,6.55 µM
same,TGI,MCF7,24.2 µM
same,CC50,MCF7; [2],71.1 µM
same,GI50,U-251,11.8 µM
same,TGI,U-251,26.9 µM
same,GI50,SK-MEL-28,19.4 µM
same,TGI,SK-MEL-28,35.6 µM
same,GI50,A549,14.7 µM
same,TGI,A549,43.4 µM
same,GI50,DU-145,19.2 µM
same,TGI,DU-145,38.4 µM
same,CC50,DU-145; [2],77 µM
same,GI50,CCRF-CEM,15.1 µM
same,TGI,CCRF-CEM,43.5 µM
same,CC50,CCRF-CEM; [2],100 µM
